The values below come from paper PMC10892375, “Determination of the Cannabinoid CB1 Receptor’s Positive Allosteric Modulator Binding Site through Mutagenesis Studies” (Pharmaceuticals, 2024).

Common to all, as to format: cell-based
For one experiment, the target named is T1, hCB1 mutant Y172A^2.59 (Homo sapiens, UniProt P21554, Y172A).
T1 construct: expressed in transfected cells; host or cells: HEK293
In words: pIRES G protein dissociation BRET assay, Y172A mutant. Particulars: for G protein dissociation, AUC of 10 μM compound (maximal response): 10 μM ligand alone. As to the method:
(§1) Mutagenesis studies using the pIRES G protein dissociation assay were performed using human embryonic kidney 293 (HEK293) wild-type cells transiently transfected with pplss-3HA-hCB1 [31] or modified receptor. All cells were cultured in Dulbecco’s Modified Eagle’s Medium (DMEM) supplemented with 10% fetal bovine serum (FBS), grown in […] vented-cap flasks, and maintained in a 37° C incubator at 5% CO2.
(§2) Mutants of pplss-3HA-hCB1 (WT, pEF-V4-HisA (pEF4a) construct) were generated using a modified QuikChange® (Stratagene, San Diego, CA, USA) site-directed mutagenesis approach using KAPA HiFi Hotstart Polymerase (KAPA Biosystems, Roche, Basel, Switzerland). Briefly, single-stranded primers used to modify one or two base pairs within the target amino acid using PCR were purchased from Integrated DNA Technologies (IDT, Coralville, IA, USA). All pplss-hCB1 mutants were generated using the pplss-3HA-hCB1 pEF4a as parental DNA. PCR products were generated using recommended cycling conditions and treated with Dpn1 (New England Biolabs, Ipswich, MA, USA) overnight at 37° C to digest methylated parental DNA. PCR products were electrophoresed and run on an agarose gel (1% (w.v^−1) agarose, HydraGene, Piscataway, NJ, USA) containing 0.25 μg/mL ethidium bromide (Sigma-Aldrich, St. Louis, MO, USA). Gels were run in 40 mM TRIS-acetate buffer containing […] (pH 8.3) at 100 V for 30 min, maximum current and included a 1kb+ DNA ladder (Invitrogen, Thermo Fisher Scientific, Carlsbad, CA, USA) for reference. Gels were imaged using an UVTech Alliance Q9 Mini transilluminator (UVTech Alliance, Cambridge, UK). Digested products were then used to transform NEB 5α competent E. coli cells in accordance with manufacturer’s instructions. Briefly, transformed PCR products were grown overnight on 8.5 mL Luria Broth agar plates (containing 100 μg/mL ampicillin) at 37° C. Single bacterial colonies were picked and inoculated in Luria Broth (containing 100 μg/mL ampicillin) and grown overnight in a shaking incubator at 37° C. Plasmids were then harvested and purified using a Qiagen miniprep kit (Qiagen, Hilden, Germany) and validated using sequencing (Genetics Analysis Service, University of Otago, Dunedin, New Zealand).
(§3) Dissociation of the G protein heterotrimer, specifically Gαi1, Gβ1, and Gγ2, was investigated using a bioluminescence resonance energy transfer (BRET) assay with the pIRES biosensor first described by and adapted by.
(§4) Briefly, 3 × 10^6 WT HEK293 cells were seeded into 10 cm culture dishes (Corning, Corning, NY, USA; one dish for the control receptor and one for each modified receptor) and incubated at 37 °C for 24 h to gain 50–60% confluency. Culture medium was then replaced and transfection mixtures containing 3 μg pIRES vector and 1 μg receptor (either pplss-hCB1 or modified receptor) were prepared (4 μg total DNA). Plasmids were initially diluted in sterile Milli-Q water before being diluted in OptiMEM reduced serum medium (Thermo Fisher Scientific, Waltham, MA, USA) and combined with […] polyethylenimine (PEI)-max (1:9 DNA:PEI-max ratio) and incubated at room temperature for 20 min. Transfection mixtures were then added to cells via dropwise addition, and cells were incubated at 37 °C for 24 h. Transfected cells were lifted and plated at 50,000 cells/well into poly-d-lysine (PDL; Sigma-Aldrich) coated white 96-well CulturPlates (PerkinElmer, Waltham, MA, USA) and incubated for a further 24 h at 37 °C.
(§5) To assay, the culture medium was aspirated and cells were washed with phosphate buffered saline (PBS) and replaced with BRET assay medium (phenol red free DMEM containing 25 mM HEPES and supplemented with 1 mg/mL bovine serum albumin; BSA, MP Biomedicals, Auckland, New Zealand) for 30 min prior to drug addition (serum starve). Drugs were prepared at 10 × concentration in BRET assay medium, combined in a polypropylene V-bottom plate, and incubated at 37° C prior to drug stimulation.

The target of another experiment is T2, hCB1 mutant F191A^3.27 (Homo sapiens, UniProt P21554, F191A).
T2 construct: expressed in transfected cells; host or cells: HEK293
T2 sequence (P21554 whole entry F191A): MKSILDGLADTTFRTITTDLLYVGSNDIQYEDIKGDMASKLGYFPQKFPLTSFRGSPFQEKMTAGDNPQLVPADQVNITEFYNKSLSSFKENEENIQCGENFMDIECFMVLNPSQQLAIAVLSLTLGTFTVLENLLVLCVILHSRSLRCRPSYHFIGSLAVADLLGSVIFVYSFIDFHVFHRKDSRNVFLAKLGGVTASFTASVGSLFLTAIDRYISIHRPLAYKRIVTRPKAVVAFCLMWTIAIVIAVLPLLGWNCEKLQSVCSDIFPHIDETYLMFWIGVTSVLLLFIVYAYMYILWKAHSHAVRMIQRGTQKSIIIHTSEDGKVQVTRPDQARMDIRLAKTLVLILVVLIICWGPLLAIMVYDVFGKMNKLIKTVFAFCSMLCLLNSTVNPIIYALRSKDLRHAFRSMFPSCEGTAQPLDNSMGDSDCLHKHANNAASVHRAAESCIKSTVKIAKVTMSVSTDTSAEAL
In words: pIRES G protein dissociation BRET assay, F191A mutant. Particulars: for G protein dissociation, AUC of 10 μM compound (maximal response): 10 μM ligand alone. As to the method: as §1, §2, §3, §4, §5

Another experiment has as its target T3, hCB1 mutant H154A^2.41 (Homo sapiens, UniProt P21554, H154A).
T3 construct: expressed in transfected cells; host or cells: HEK293
In words: pIRES G protein dissociation BRET assay, H154A mutant. As to the method: as §1, §2, §3, §4, §5
(In general: BRET reads energy transfer from a luciferase to a nearby fluorophore.)

The target in another experiment is T4, hCB1 mutant F237A^4.46 (Homo sapiens, UniProt P21554, F237A).
T4 construct: expressed in transfected cells; host or cells: HEK293
T4 sequence (P21554 whole entry F237A): as the sequence (P21554 whole entry F191A) above, with A191F, F237A counted along it
In words: pIRES G protein dissociation BRET assay, F237A mutant. To be noted: for G protein dissociation, AUC of 10 μM compound (maximal response): 10 μM ligand alone. Here is the method:
as §1, §2, §3, §4, §5

The next experiment addresses T5, hCB1 mutant R220A^3.56 (Homo sapiens, UniProt P21554, R220A).
T5 construct: expressed in transfected cells; host or cells: HEK293
In words: pIRES G protein dissociation BRET assay, R220A mutant. Particulars: for G protein dissociation, AUC of 10 μM compound (maximal response): 10 μM ligand alone. As to the method:
as §1, §2, §3, §4, §5

The next experiment deals with T6, hCB1 mutant L404A^8.50 (Homo sapiens, UniProt P21554, L404A).
T6 construct: expressed in transfected cells; host or cells: HEK293
T6 sequence (P21554 whole entry L404A): as the sequence (P21554 whole entry F191A) above, with A191F, L404A counted along it
The experiment in a line: pIRES G protein dissociation BRET assay, L404A mutant. To be noted: for G protein dissociation, AUC of 10 μM compound (maximal response): 10 μM ligand alone. As to the method:
as §1, §2, §3, §4, §5

A further experiment addresses T7, hCB1 mutant F408A^8.54 (Homo sapiens, UniProt P21554, F408A).
T7 construct: expressed in transfected cells; host or cells: HEK293
In words: pIRES G protein dissociation BRET assay, F408A mutant. To be noted: for G protein dissociation, AUC of 10 μM compound (maximal response): 10 μM ligand alone. As to the method: as §1, §2, §3, §4, §5

The mark [1] stands for this setting: 10 μM CP55940 in the presence of 10 μM ZCZ011.
[2] abbreviates: in the presence of 10 μM GAT228.
Setting [3] is: in the presence of 10 μM GAT229.
The mark [4] stands for this setting: top of the curve (maximal response).

T7 sequence (P21554 whole entry F408A): as the sequence (P21554 whole entry F191A) above, with A191F, F408A counted along it
T3 sequence (P21554 whole entry H154A): as the sequence (P21554 whole entry F191A) above, with H154A, A191F counted along it
T5 sequence (P21554 whole entry R220A): as the sequence (P21554 whole entry F191A) above, with A191F, R220A counted along it
T1 sequence (P21554 whole entry Y172A): as the sequence (P21554 whole entry F191A) above, with Y172A, A191F counted along it

As for `CCCCCCC(C)(C)c1ccc([C@@H]2C[C@H](O)CC[C@H]2CCCO)c(O)c1` [CP55940], the “G protein dissociation, AUC, 10 μM CP55940 + 10 μM ZCZ011” value at hCB1 mutant Y172A^2.59 (setting [1]) is recorded as −305.2 ± 5.7; on hCB1 mutant F191A^3.27 (setting [1]) it was −134.7 ± 12.4; at hCB1 mutant H154A^2.41 (setting [1]), −189.5 ± 8.5; on hCB1 mutant F237A^4.46 (setting [1]), −85.2 ± 9.9; at hCB1 mutant R220A^3.56 (setting [1]) it was −137.8 ± 5.0; at hCB1 mutant L404A^8.50 (setting [1]), −133.5 ± 5.6. Moreover, at hCB1 mutant F408A^8.54 (setting [1]), the “G protein dissociation, AUC, 10 μM CP55940 + 10 μM ZCZ011” value was −159.7 ± 13.4. For the same compound, the “G protein dissociation, AUC of 10 μM compound (maximal response)” value (“G protein dissociation … (maximal response)” below) on hCB1 mutant Y172A^2.59 is −284.7 ± 8.4; on hCB1 mutant F191A^3.27, −117.8 ± 7.5; on hCB1 mutant F237A^4.46, −69.8 ± 6.5; on hCB1 mutant R220A^3.56, −112.1 ± 2.9; at hCB1 mutant L404A^8.50, −110.3 ± 3.7; at hCB1 mutant F408A^8.54, −131.7 ± 10.4. The “EMAX, CP55940 + 10 μM GAT228” value is −298.9 ± 5.4 ∆BRET.sec on hCB1 mutant Y172A^2.59 (setting [2]); −123.9 ± 7.4 ∆BRET.sec on hCB1 mutant F191A^3.27 (setting [2]); −200.5 ± 11.6 ∆BRET.sec at hCB1 mutant H154A^2.41 (setting [2]); −69.4 ± 6.4 ∆BRET.sec at hCB1 mutant F237A^4.46 (setting [2]); −140.1 ± 13.5 ∆BRET.sec on hCB1 mutant R220A^3.56 (setting [2]); −115.1 ± 8.3 ∆BRET.sec at hCB1 mutant L404A^8.50 (setting [2]). Besides, the “EMAX, CP55940 + 10 μM GAT228” value at hCB1 mutant F408A^8.54 (setting [2]) was −148.4 ± 11.4 ∆BRET.sec. The “EMAX, CP55940 + 10 μM GAT229” value at hCB1 mutant Y172A^2.59 (setting [3]) is given as −309.0 ± 3.5 ∆BRET.sec; on hCB1 mutant F191A^3.27 (setting [3]), −119.1 ± 7.8 ∆BRET.sec; on hCB1 mutant H154A^2.41 (setting [3]), −210.6 ± 10.1 ∆BRET.sec; on hCB1 mutant F237A^4.46 (setting [3]), −67.4 ± 8.3 ∆BRET.sec; at hCB1 mutant R220A^3.56 (setting [3]), −144.6 ± 10.4 ∆BRET.sec; at hCB1 mutant L404A^8.50 (setting [3]), −122.3 ± 7.0 ∆BRET.sec. For the same compound, on hCB1 mutant F408A^8.54 (setting [3]), the “EMAX, CP55940 + 10 μM GAT229” value is listed as −154.0 ± 14.5 ∆BRET.sec. Moreover, the “EMAX, CP55940 Alone” value is given as −273.2 ± 6.9 ∆BRET.sec at hCB1 mutant Y172A^2.59 (setting [4]); −117.3 ± 6.1 ∆BRET.sec on hCB1 mutant F191A^3.27 (setting [4]); −151.8 ± 5.9 ∆BRET.sec at hCB1 mutant H154A^2.41 (setting [4]); −69.8 ± 6.7 ∆BRET.sec at hCB1 mutant F237A^4.46 (setting [4]); −110.8 ± 2.8 ∆BRET.sec at hCB1 mutant R220A^3.56 (setting [4]); −103.1 ± 3.6 ∆BRET.sec at hCB1 mutant L404A^8.50 (setting [4]). For the same compound, on hCB1 mutant F408A^8.54 (setting [4]), the “EMAX, CP55940 Alone” value is −128.6 ± 12.1 ∆BRET.sec.
For `O=[N+]([O-])C[C@H](c1ccccc1)c1c(-c2ccccc2)[nH]c2ccccc12` [GAT228], the “Increase in the potency of CP55940-induced G protein dissociation” value on hCB1 mutant Y172A^2.59 (10 μM allosteric ligand) was “less than 0.5 log units”. The “G protein dissociation … (maximal response)” value at hCB1 mutant Y172A^2.59 was −133.4 ± 9.8; on hCB1 mutant F191A^3.27, 19.5 ± 11.9; at hCB1 mutant H154A^2.41 (10 μM ligand alone), −101.6 ± 6.9; on hCB1 mutant F237A^4.46 it was −40.8 ± 2.8; at hCB1 mutant R220A^3.56 it was −85.2 ± 13.6; at hCB1 mutant L404A^8.50, −63.2 ± 5.6. At hCB1 mutant F408A^8.54, the “G protein dissociation … (maximal response)” value was −90.3 ± 8.3. The “Allosteric agonism: G protein dissociation in the absence of an orthosteric ligand” value at hCB1 mutant F191A^3.27 (10 μM, result in words) was “abolished”.
